From PMC10518255, “A first-in-class pan-lysyl oxidase inhibitor impairs stromal remodeling and enhances gemcitabine response and survival in pancreatic cancer” (Nature Cancer, 2023)
Where “and” joins values, the source holds several entries; their conditions need not be identical. Equal values may be shown once.

Columns and labels:
[1] = target: all lysyl oxidase family members; assay: Lysyl oxidase enzymatic activity, fluorescence-based assay, IC50 range over the family; type: biochemical, human; settings: range over the five family members; read-out: IC50 values against all lysyl oxidase family members
Procedure: In characterizing PXS-5505, the half-maximum inhibitory concentration (IC50) values for each of the lysyl oxidase family members were determined by measuring enzymatic activity using a fluorescence-based assay.

KPC CAFs = assay: 3D organotypic matrix contraction assay; type: cell-based, mouse; design: measured area of matrices: unit not given here; settings: for measured area of matrices: per replicate, n = 3
Procedure: (§1) Fig. 3 PXS-5505 inhibition of CAF remodeling in vitro. a, Quantitative PCR with reverse transcription (qRT–PCR) showing in vitro comparison of KPC CAF relative expression of lysyl oxidase family members compared to KPC CCs from the same model (n = 3 biologically independent samples). Comparisons were determined by 2^–∆∆Ct approach. b, Representative images of 3D organotypic matrix contraction assay at days 2, 6 and 12 in the absence (gray) or presence (pink) of PXS-5505 (30 µM). Scale bars, 5 mm. Comparison of measured area of matrices between control and PXS-5505 treatment groups over time (n = 3 technical samples examined over three biologically independent samples). Data are mean ± s.d. c, Concentration of immature divalent DHLNL and mature trivalent Pyr collagen crosslinks determined by LC–MS from control and PXS-5505-treated organotypic matrices at day 12 (n = 3 technical samples examined over two biologically independent samples). Data are mean ± s.d. […] Data are presented as mean ± s.d. […] Comparison of number of CCs invaded per field of view (FOV) as determined by H&E and PanCK staining (nine images taken from three technical samples from each of three biologically independent contracted matrices), normalized to control. Data are mean ± s.d. Scale bars, 100 μm. […] Source data
High-purity rat tail collagen for 3D organotypic assays was acid extracted following previously published methodology. The 12-day organotypic assays were carried out as described previously. In brief, 2 × 10^5 KPC CAFs were embedded in 2.5 ml 1.5 mg ml^−1 rat tail collagen and allowed to remodel for 12 days in a six-well plate in DMEM supplemented with 10% FBS and 1% penicillin–streptomycin in 21% O2/5% CO2 (Extended Data Fig. 4a). For human pancreatic cancer CAFs, 3.45 × 10^5 cells were embedded into 1.25 ml 1.5 mg ml^−1 rat tail collagen and allowed to remodel for 12 days in a 12-well plate in IMDM supplemented with 4 mM glutamine and 10% FBS in 21% O2/5% CO2.
Extended Data Fig. 4 PXS-5505 inhibits collagen cross-linking by PDAC CAFs in vitro resulting in decreased cancer cell invasion. a. Schematic of organotypic matrix remodeling assay whereby CAFs are embedded into a 3D collagen matrix and growth media supplemented with or without PXS-5505 to inhibit lysyl oxidase family activity b. Chemical structures of lysyl oxidase family catalyzed hydroxyallysine or allysine residues and the subsequent divalent and trivalent bonds that are formed that can be quantified by mass spectrometry. c. Representative images of 3D organotypic matrix contraction by human pancreatic cancer CAFs at days 2, 6 and 12 in the absence (gray) and presence (pink) of PXS-5505 (30 µM). Scale bars = 5 mm. […] Data presented as mean values +/− SD. d. […] Data presented as mean values +/− SD. Relative fold expression of LOXL family members compared to LOX were determined by 2^–∆∆Ct approach. f. Schematic of cancer cell invasion in a 3D organotypic matrix assay whereby cancer cells are seeded to the surface of a remodeled collagen plug and placed at an air–liquid interface and allowed to invade into the remodeled matrix. […] Scale bars = 100 μm. g. […] Representative images of 3D organotypic matrix contraction assay at days 2, 6 and 12 of control (gray) and presence of PXS-5120 (blue) and PXS-5505 (pink). Scale bars = 5 mm. Comparison of measured area of matrices between control, PXS-5120 and PXS-5505 treatment groups (n = 3) over time. i. […] Representative images of invasion of KPC cancer cells into a contracted organotypic matrix as determined by H&E staining. […] Source data

[2] = system: collagen crosslinks (DHLNL, Pyr) in KPC CAF organotypic matrices; assay: Collagen crosslink quantification by LC-MS in organotypic matrices; type: cell-based, mouse
Procedure: as §1, with “([…]).” for “(n = 3 technical samples examined over two biologically independent samples).”
KPC CAFs embedded in 3D organotypic matrices remodel and crosslink them.
Collagen matrices were freeze dried and reduced with NaBH4. The resulting pellet was hydrolyzed with 6 mol l^−1 HCl at 100 °C for 24 h. An automated solid phase extraction system (Gilson GX-271 ASPECA system) was used to extract hydroxyproline and crosslinks from the hydrolysate. The samples were analyzed for hydroxyproline crosslinks by a UHPLC–ESI–MS/MS on a Thermo Dionex UPHPLC and TSQ Endura triple quadmass spectrometer as previously published. The lower limit of detection was 0.013 pmol 10 µl^−1.

[3] = LC/MS, organotypic matrices at day 12, single replicates (3 biological x 2 technical)
[4] = day 12, normalized to total collagen content

With `Cl.Cl.NC/C=C(\F)CS(=O)(=O)c1cccc2cccnc12.O` [PXS-5505, (Z)-3-fluoro-4-(quinolin-8-ylsulfonyl)but-2-en-1-amine dihydrochloride monohydrate] the IC50 [1] was 200 to 5000 nM, the matrix contraction (KPC CAFs; KPC CAFs, PXS-5505 30 µM, days 2, 6 and 12) was “no macroscopic effect on matrix contraction” and the “measured area of matrices” value (KPC CAFs; time 0 (unit of time not given)) was 9.616. For the same compound, the “measured area of matrices” value (KPC CAFs; time 1 (unit of time not given)) was 9.616, the “measured area of matrices” value (KPC CAFs; time 2 (unit of time not given)) was 9.561 and 9.616 (2×) and the “measured area of matrices” value (KPC CAFs; time 3 (unit of time not given)) was 9.0213 and 9.561 and 9.616. For the same compound, the “measured area of matrices” value (KPC CAFs; time 4 (unit of time not given)) was 6.466 and 5.808 and 8.601, the “measured area of matrices” value (KPC CAFs; time 5 (unit of time not given)) was 4.597 and 3.696 and 6.971 and the “measured area of matrices” value (KPC CAFs; time 6 (unit of time not given)) was 3.299 and 2.6 and 5.471. The “measured area of matrices” value (KPC CAFs; time 7 (unit of time not given)) was 2.954 and 2.216 and 4.409, the “measured area of matrices” value (KPC CAFs; time 8 (unit of time not given)) was 2.6 and 1.886 and 3.595 and the “measured area of matrices” value (KPC CAFs; time 9 (unit of time not given)) was 1.96 and 1.5386 and 2.216. The “measured area of matrices” value (KPC CAFs; time 10 (unit of time not given)) was 1.327 and 1.266 and 1.583, the “measured area of matrices” value (KPC CAFs; time 11 (unit of time not given)) was 1.149 and 1.168 and 1.41 and the “measured area of matrices” value (KPC CAFs; time 12 (unit of time not given)) was 1.075 and 1.112 and 1.188. For the same compound, the “Concentration of immature divalent dihyroxylysinonorleucine (DHLNL) collagen cross-links” value [2, 3] was 2.81 pmol/mL and 3.555 pmol/mL and 2.615 pmol/mL and 4.105 pmol/mL and 3.075 pmol/mL and 4.4 pmol/mL, the “Concentration of mature trivalent hydroxylysylpyridinoline (Pyr, PYD) collagen cross-links” value [2, 3] was 4.5 pmol/mL and 5.52 pmol/mL and 3.85 pmol/mL and 8.4 pmol/mL and 6.325 pmol/mL and 6.2 pmol/mL and the “immature divalent DHLNL collagen crosslinks” value [2, 4] was “decreases”. The “mature trivalent Pyr collagen crosslinks” value [2, 4] was “decreases”.
